From patent publication US10774122B2, “ERG targeted therapy” (The Regents of the University of Michigan, priority 2017, dated 2020)
Where a SMILES comes first, the peptide text is derived from it. [ ]: non-standard residue; d: D form.

Experiments:
ERG:DNA-PKcs interaction = target: T1, ERG:DNA-PKcs interaction (Homo sapiens, UniProt P11308); settings: mouse, in vivo, 25 mg/kg
T1 sequence (P11308 33-479 limits assumed): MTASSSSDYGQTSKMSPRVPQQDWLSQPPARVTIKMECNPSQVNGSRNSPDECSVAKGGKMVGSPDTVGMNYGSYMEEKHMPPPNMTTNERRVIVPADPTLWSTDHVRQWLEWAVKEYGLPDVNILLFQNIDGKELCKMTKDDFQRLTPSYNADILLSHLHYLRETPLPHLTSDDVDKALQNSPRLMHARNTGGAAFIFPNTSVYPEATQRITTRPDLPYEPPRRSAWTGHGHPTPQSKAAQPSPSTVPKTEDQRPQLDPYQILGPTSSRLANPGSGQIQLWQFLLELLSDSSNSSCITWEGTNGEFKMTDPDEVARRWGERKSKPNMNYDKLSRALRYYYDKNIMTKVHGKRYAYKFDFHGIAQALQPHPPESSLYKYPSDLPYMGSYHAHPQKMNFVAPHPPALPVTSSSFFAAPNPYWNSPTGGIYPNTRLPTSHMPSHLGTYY
Experimental: Cell pellets or tumors treated with or without the peptidomimetics were lysed in cell lysis buffer (20 mM MOPS, pH 7.0, 2 mM EGTA, 5 mM EDTA, 30 mM sodium fluoride, 60 mM β-glycerophosphate, 20 mM sodium pyrophosphate, 1 mM sodium orthovanadate, 1% Triton X-100, 1 mM DTT, protease inhibitor cocktail (Roche)). Cell lysates (0.5-1.0 mg) were pre-cleaned with protein A/G agarose beads (Santa Cruz) by incubation for 1 hour with shaking at 4° C. followed by centrifugation at 2000 rpm for 3 minute. Lysates were then incubated with 2 μg ERG antibody (Santa Cruz, C-17) at 4° C. for 4 hours with shaking prior to addition of 20 μl protein A/G agarose beads and incubated at 4° C. overnight. […] Samples were then analyzed by SDS-PAGE and Western blot analysis as described above.
VCaP xenografted mice were injected with a single dose of 25 mg/kg biotinylated RI-EIP1 and serum and tumors were collected at varying time intervals as indicated.

ERG = target: T2, ERG (Homo sapiens, UniProt P11308)
T2 sequence (P11308 1-479): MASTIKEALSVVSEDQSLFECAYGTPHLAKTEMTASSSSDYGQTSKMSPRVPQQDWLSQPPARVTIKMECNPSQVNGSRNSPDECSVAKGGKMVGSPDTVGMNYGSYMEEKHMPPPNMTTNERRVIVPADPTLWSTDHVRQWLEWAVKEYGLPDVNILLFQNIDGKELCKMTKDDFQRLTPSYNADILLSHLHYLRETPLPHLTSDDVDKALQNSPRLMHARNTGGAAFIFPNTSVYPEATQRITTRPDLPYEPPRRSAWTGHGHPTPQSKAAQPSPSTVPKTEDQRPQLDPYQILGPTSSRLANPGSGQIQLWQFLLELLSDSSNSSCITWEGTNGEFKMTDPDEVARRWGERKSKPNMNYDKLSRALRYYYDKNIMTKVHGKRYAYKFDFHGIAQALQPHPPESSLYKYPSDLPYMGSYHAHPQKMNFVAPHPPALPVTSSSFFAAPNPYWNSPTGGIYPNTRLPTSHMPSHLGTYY
Experimental: This technique was applied to evaluate the target binding specificity of RI-EIPs. […] All CETSAs were performed after 3 hours treatment with the peptidomimetics at the indicated doses and temperatures.

[1] = test system: PC3 (ERG fusion-negative) xenografts; assay: PC3 xenograft mouse model, tumor growth; settings: 25 mg/kg, compared to mutant peptidomimetic
Experimental: Athymic Nude-Foxnlnu male mice were procured from Harlan Laboratories, Inc (Indianapolis, Ind.). All procedures involving mice were approved by the University Committee on Use and Care of Animals (UCUCA) at the University of Michigan and conformed to their relevant regulatory standards. […] Statistical significance for Kaplan-Meier analysis was determined by the log-rank (Mantel-Cox) test.
Athymic Nude-Foxnlnu male mice were procured from Harlan Laboratories, Inc. (Indianapolis, Ind.). VCaP (2×10^6 cells) or PC3 (5×10^5 cells) were resuspended in 100 μl of saline with 50% Matrigel (BD Biosciences, Becton Drive, NJ) and implanted subcutaneously into the flank regions on both sides of the mice. Mice were anesthetized using a cocktail of xylazine (80-120 mg/kg, IP) and ketamine (10 mg/kg, IP) for chemical restraint before tumor cells implantation. For short term assays, all tumors were staged for three weeks before starting peptidomimetic treatment. […]
Tumor growth was recorded every three days using digital calipers and tumor volumes were calculated using the formula (π/6) (L×W2), where L=length of tumor and W=width. Body weight was monitored weekly over the course of the study. […] Statistical significance for Kaplan-Meier analysis was determined by the log-rank (Mantel-Cox) test. […]

[2] = test system: ERG and DNA-PKcs enrichment at ERG-regulated genomic loci; type: cell-based
Experimental: VCaP cells were grown in complete medium and treated with peptidomimetics 12 hours prior to harvesting cells. ChIP assays were carried out as previously described (Brenner et al., 2011; supra; Yu et al., 2010; supra) using antibodies against ERG (Santa Cruz, # sc-354), DNA-PKcs (BD Biosciences, #610805), rabbit IgG (Santa Cruz, # sc-2027) or mouse IgG (Santa Cruz, # sc-2025). Briefly, chromatin collected from formaldehyde crosslinked and lysed cells was sonicated to an average length of 600 bp. Supernatants containing chromatin fragments were pre-cleared using protein A/G beads (Upstate) and incubated with 3-5 μg of ERG antibody or IgG overnight prior to the addition of […] of protein A/G beads for 1 hour. Antibody-bead precipitates were then washed six times and antibody/protein/DNA complexes were eluted with 150 μl IP elution buffer (50 mM […], 1% SDS). To reverse the crosslinks, the complexes were incubated in elution buffer containing 10 μg RNase A and 0.3 M NaCl at 67° C. for 4-5 hours. DNA/protein complexes were then precipitated with ethanol, air-dried, and dissolved in 100 μl of TE. Protein was then digested by incubation with proteinase K at 45° C. for 1 hour and DNA was purified using a QIAGEN PCR column according to the manufacturer's protocol. QPCR was performed using appropriate primers as previously described (Brenner et al., 2011; supra).

Structure (SMILES): CC(C)C[C@@H](NC(=O)[C@H]1CCCN1C(=O)[C@H]1CCCN1C(=O)[C@@H](Cc1ccc(O)cc1)NC(=O)[C@@H](CC(C)C)NC(=O)[C@@H](Cc1ccccc1)NC(=O)[C@H](NC(=O)CNC(=O)CNC(=O)[C@@H](CCCNC(=N)N)NC(=O)[C@@H](CCCCN)NC(=O)[C@@H](CCCCN)NC(=O)[C@@H](CCCNC(=N)N)NC(=O)[C@@H](CCCNC(=N)N)NC(=O)[C@@H](CCC(N)=O)NC(=O)[C@@H](CCCNC(=N)N)NC(=O)[C@@H](CCCNC(=N)N)NC(=O)[C@@H](CCCNC(=N)N)NC(=O)CN)[C@H](C)O)C(=O)O [RI-EIP1] (H-G[dR][dR][dR][dQ][dR][dR][dK][dK][dR]GG[dT][dF][dL][dY][dP][dP][dL]-OH)
- ERG:DNA-PKcs interaction in VCaP xenograft tumors (ERG:DNA-PKcs interaction): blocked
- soluble ERG protein in VCaP versus HUVEC cells (CETSA) (ERG): clear difference
- tumor size of PC3 xenografts [1]: no difference in tumor size
- ERG and DNA-PKcs enrichment at ERG-regulated genomic loci [2]: inhibits
